Measurements as given in patent US20230139835A1, “ALLULOSE IN CRYSTALLINE FORM” (SAVANNA INGREDIENTS GMBH, priority 2020, published 2023).

Experiments:
[1] = Particle size distribution by dynamic image analysis (Camsizer X2 with X-Jet module); format: physicochemical
Experimental: Said preferred particle size distribution is determined by means of dynamic image analysis (Camsizer X2 from Retsch with X-Jet module), wherein a dispersion pressure of 5, 20, or 460 kPa was applied. The evaluation was carried out in three size models, namely:
Xc(min) Particle width which is determined from the narrowest of all measured chords xc;
XFe(max) Particle length which is determined from the longest of all measured Feret diameters xFe;
Xarea Equivalent particle diameter which corresponds to the circle equivalent diameter.

[2] = cited from earlier work

For `O=C(CO)C(O)C(O)C(O)CO` (stereo not shown) [Comparative Example V1, allulose], the “Minimum d10 XFe(max)” value ([1]; dispersion pressure 5 kPa) was 90 μm, the “Minimum d10 Xarea” value ([1]; dispersion pressure 5 kPa) was 75 μm and the “Minimum d10 Xc(min)” value ([1]; dispersion pressure 5 kPa) was 60 μm. For the same compound, the “Minimum d50 XFe(max)” value ([1]; dispersion pressure 5 kPa) was 210 μm, the “Minimum d50 Xarea” value ([1]; dispersion pressure 5 kPa) was 175 μm and the “Minimum d50 Xc(min)” value ([1]; dispersion pressure 5 kPa) was 130 μm. For the same compound, the “Minimum d90 XFe(max)” value ([1]; dispersion pressure 5 kPa) was 320 μm, the “Minimum d90 Xarea” value ([1]; dispersion pressure 5 kPa) was 255 μm and the “Minimum d90 Xc(min)” value ([1]; dispersion pressure 5 kPa) was 215 μm. The “Minimum d10 XFe(max)” value ([1]; dispersion pressure 20 kPa) was 60 μm, the “Minimum d10 Xarea” value ([1]; dispersion pressure 20 kPa) was 50 μm and the “Minimum d10 Xc(min)” value ([1]; dispersion pressure 20 kPa) was 40 μm. The “Minimum d50 XFe(max)” value ([1]; dispersion pressure 20 kPa) was 185 μm, the “Minimum d50 Xarea” value ([1]; dispersion pressure 20 kPa) was 170 μm and the “Minimum d50 Xc(min)” value ([1]; dispersion pressure 20 kPa) was 110 μm. For the same compound, the “Minimum d90 XFe(max)” value ([1]; dispersion pressure 20 kPa) was 315 μm, the “Minimum d90 Xarea” value ([1]; dispersion pressure 20 kPa) was 250 μm and the “Minimum d90 Xc(min)” value ([1]; dispersion pressure 20 kPa) was 210 μm. For the same compound, the “Minimum d10 XFe(max)” value ([1]; dispersion pressure 460 kPa) was 1 μm, the “Minimum d10 Xarea” value ([1]; dispersion pressure 460 kPa) was 2 μm and the “Minimum d10 Xc(min)” value ([1]; dispersion pressure 460 kPa) was 2 μm. The “Minimum d50 XFe(max)” value ([1]; dispersion pressure 460 kPa) was 55 μm, the “Minimum d50 Xarea” value ([1]; dispersion pressure 460 kPa) was 40 μm and the “Minimum d50 Xc(min)” value ([1]; dispersion pressure 460 kPa) was 30 μm. For the same compound, the “Minimum d90 XFe(max)” value ([1]; dispersion pressure 460 kPa) was 150 μm, the “Minimum d90 Xarea” value ([1]; dispersion pressure 460 kPa) was 110 μm and the “Minimum d90 Xc(min)” value ([1]; dispersion pressure 460 kPa) was 110 μm.

For `O=C(CO)C(O)C(O)C(O)CO` (stereo not shown) [Example 1, allulose], the “Minimum d10 XFe(max)” value ([1]; dispersion pressure 5 kPa) was 105 μm, the “Minimum d10 Xarea” value ([1]; dispersion pressure 5 kPa) was 90 μm and the “Minimum d10 Xc(min)” value ([1]; dispersion pressure 5 kPa) was 72 μm. The “Minimum d50 XFe(max)” value ([1]; dispersion pressure 5 kPa) was 230 μm, the “Minimum d50 Xarea” value ([1]; dispersion pressure 5 kPa) was 190 μm and the “Minimum d50 Xc(min)” value ([1]; dispersion pressure 5 kPa) was 150 μm. For the same compound, the “Minimum d90 XFe(max)” value ([1]; dispersion pressure 5 kPa) was 350 μm, the “Minimum d90 Xarea” value ([1]; dispersion pressure 5 kPa) was 270 μm and the “Minimum d90 Xc(min)” value ([1]; dispersion pressure 5 kPa) was 235 μm. The “Minimum d10 XFe(max)” value ([1]; dispersion pressure 20 kPa) was 75 μm, the “Minimum d10 Xarea” value ([1]; dispersion pressure 20 kPa) was 75 μm and the “Minimum d10 Xc(min)” value ([1]; dispersion pressure 20 kPa) was 55 μm. The “Minimum d50 XFe(max)” value ([1]; dispersion pressure 20 kPa) was 220 μm, the “Minimum d50 Xarea” value ([1]; dispersion pressure 20 kPa) was 195 μm and the “Minimum d50 Xc(min)” value ([1]; dispersion pressure 20 kPa) was 125 μm. The “Minimum d90 XFe(max)” value ([1]; dispersion pressure 20 kPa) was 335 μm, the “Minimum d90 Xarea” value ([1]; dispersion pressure 20 kPa) was 280 μm and the “Minimum d90 Xc(min)” value ([1]; dispersion pressure 20 kPa) was 225 μm. The “Minimum d10 XFe(max)” value ([1]; dispersion pressure 460 kPa) was 10 μm, the “Minimum d10 Xarea” value ([1]; dispersion pressure 460 kPa) was 12 μm and the “Minimum d10 Xc(min)” value ([1]; dispersion pressure 460 kPa) was 12 μm. The “Minimum d50 XFe(max)” value ([1]; dispersion pressure 460 kPa) was 70 μm, the “Minimum d50 Xarea” value ([1]; dispersion pressure 460 kPa) was 55 μm and the “Minimum d50 Xc(min)” value ([1]; dispersion pressure 460 kPa) was 45 μm. The “Minimum d90 XFe(max)” value ([1]; dispersion pressure 460 kPa) was 175 μm, the “Minimum d90 Xarea” value ([1]; dispersion pressure 460 kPa) was 135 μm and the “Minimum d90 Xc(min)” value ([1]; dispersion pressure 460 kPa) was 135 μm.

For `C=C1C[C@@]23CC[C@H]4[C@@](C)(CCC[C@@]4(C)C(=O)O[C@@H]4O[C@H](CO)[C@@H](O)[C@H](O)[C@H]4O)[C@@H]2CC[C@]1(O[C@@H]1O[C@H](CO)[C@@H](O)[C@H](O)[C@H]1O[C@@H]1O[C@H](CO)[C@@H](O)[C@H](O)[C@H]1O)C3` [stevioside], the “Daily intake considered harmless” value [2] is listed as “up to 4 mg per kilogram of body weight”.
